Data as given in PubChem BioAssay AID324 (DTP/NCI, 2004).
Inconclusive results and toxic doses are left out. How the source made its calls: active means survival T/C of 150% or more; inactive means T/C below 125% in these data. Starred links: 1 amine or outer side, 2 acyl side, 3 side chain; linkers in the order of their positions; H or OH if unused. Positions of bridges follow the written chain, without caps; N, C: chain ends. Non-standard residues stand in square brackets, D forms with d. Residues, ends and D or L forms follow the SMILES beside them. Chains are numbered I, II in the order given. Actinocin(9to1) = Cc1c2oc3c(C)ccc(C(=O)[*:1])c3nc-2c(C(=O)[*:2])c(N)c1=O; aThr = C[C@H](O)[C@H](N)C(=O)O; NMeV = CN[C@H](C(=O)O)C(C)C; Sar = CNCC(=O)O

Tested on: CD2F1 mice, AMSA-resistant P388 leukemia ip, median survival T/C
Test: NCI In Vivo Anticancer Drug Screen. Data for tumor model P388 Leukemia resistant to AMSA; NSC 249992 (intraperitoneal) in CD2F1 (CDF1) mice
Details: endpoint: median survival time, schedule: Q04DX003 (ip), vehicle: saline + alcohol, higher = longer survival
Method: The antitumor activity of compounds was measured in mice bearing transplantable tumors. Survival or tumor size were measured and the results are expressed as the measurement made in the treated group (T) divided by the measurement made in the vehicle treated control group (C). The tumor model used in this assay is P388 Leukemia resistant to AMSA; NSC 249992 (intraperitoneal) in CD2F1 (CDF1) mice

Measured: T/C

O=NN(CCCl)C(=O)NCCCl
active: dose: 3.89 mg/kg/injection 164 % of control | dose: 6.48 mg/kg/injection 222 % of control | dose: 10.8 mg/kg/injection 267 % of control | dose: 18.0 mg/kg/injection 387 % of control
inactive: dose: 30.0 mg/kg/injection 115 % of control

Cc1c2oc3c(C)ccc(C(=O)N[C@@H]4C(=O)N[C@H](C(C)C)C(=O)N5CCC[C@H]5C(=O)N(C)CC(=O)N(C)[C@@H](C(C)C)C(=O)O[C@H]4C)c3nc-2c(C(=O)N[C@@H]2C(=O)N[C@H](C(C)C)C(=O)N3CCC[C@H]3C(=O)N(C)CC(=O)N(C)[C@@H](C(C)C)C(=O)O[C@H]2C)c(N)c1=O (I: [aThr][dV]P[Sar][NMeV] / II: [aThr][dV]P[Sar][NMeV]; ester I:1-I:C, II:1-II:C; linker I:N-II:N via Actinocin(9to1))
active: dose: 0.08 mg/kg/injection 171 % of control | dose: 0.13 mg/kg/injection 223 % of control | dose: 0.18 mg/kg/injection 155 % of control | dose: 0.3 mg/kg/injection 176 % of control | dose: 0.5 mg/kg/injection 219 % of control
